The values that follow come from publication PMC8426295, “Cytotoxic and radiosensitising effects of a novel thioredoxin reductase inhibitor in breast cancer” (Investigational New Drugs, 2021).

SMILES strings stand for the structures.

One series addresses T1, TrxR (Homo sapiens, UniProt Q16881).
T1 sequence (Q16881 1-649): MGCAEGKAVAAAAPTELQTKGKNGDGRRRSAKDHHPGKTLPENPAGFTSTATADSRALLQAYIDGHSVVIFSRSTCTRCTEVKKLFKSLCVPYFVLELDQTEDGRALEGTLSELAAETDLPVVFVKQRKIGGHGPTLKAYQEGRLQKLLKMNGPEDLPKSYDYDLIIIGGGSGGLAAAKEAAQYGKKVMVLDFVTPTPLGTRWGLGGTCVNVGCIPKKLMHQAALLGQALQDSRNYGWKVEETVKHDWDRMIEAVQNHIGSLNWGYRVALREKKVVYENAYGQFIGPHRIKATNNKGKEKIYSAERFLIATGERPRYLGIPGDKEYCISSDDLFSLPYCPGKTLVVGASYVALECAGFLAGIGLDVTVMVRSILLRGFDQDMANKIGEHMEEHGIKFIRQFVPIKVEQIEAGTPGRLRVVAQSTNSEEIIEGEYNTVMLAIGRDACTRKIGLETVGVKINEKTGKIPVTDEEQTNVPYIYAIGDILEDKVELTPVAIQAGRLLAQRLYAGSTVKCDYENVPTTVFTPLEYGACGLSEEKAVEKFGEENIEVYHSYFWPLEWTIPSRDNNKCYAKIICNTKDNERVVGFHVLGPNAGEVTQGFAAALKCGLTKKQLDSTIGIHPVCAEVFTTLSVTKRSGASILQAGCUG
Description: Thioredoxin reductase activity assay (insulin reduction) on lysates of drug-treated breast cancer cells. It is filed as cell-based. The following applies: 1000 nM; for inhibition of TrxR activity: 48 h. As for the experimental part:
TrxR enzyme activity was assessed using an insulin reduction assay. Briefly, 2 × 10^6 cells were seeded, in triplicate, in 75c m^2 tissue culture flasks. After 24 h, sub-confluent cells were treated with either IQ9 (0–1000 nM) or 1000 nM auranofin (as a positive control) for 4 or 48 h, then trypsinised, washed, and resuspended in M-PER™ Mammalian Protein Extraction Reagent (ThermoFisher, USA) supplemented with 1X Halt protease inhibitor and EDTA. Protein concentration was determined using the Bradford assay. 80 μg of protein lysates isolated from each treatment conditions and reaction mix (HE buffer (100 mM HEPES pH 7.2, 5 mM EDTA), 20 μM Trx, 1.7 mM insulin, 10 mM β-NADPH) were added to the 96-well plate and incubated for 1 h at 37 °C. The reaction was stopped by adding stop buffer containing 6 M guanidine hydrochloride, 50 mM Tris, and 10 mM DTNB (Sigma, UK), with a final pH of 8.0. The plate was read at room temperature using a BMG Fluostar Optima Microplate Reader at 412 nm wavelength. The TrxR activity was expressed as the percentage of control, no drug-treated.

On the set-up of series [1]: method as in PMID 22509926. The following applies: cited from earlier work.
The test system of the next series is breast cancer cell lines. The experiment in a line: Cell proliferation assay, stated across all cell lines. It is filed as cell-based, human. To be noted: 400–600 nM, 48 h. How it is done:
1 × 10^5 cells (2 × 10^5 for T47D’s) were seeded, in triplicate, in 6-well plates and incubated overnight before being treated with IQ9 (0–5000 nM) or doxorubicin (400–600 nM) (positive control and comparator). Total cells were counted after 48 h using a haemocytometer. The total cell count in drug treatment wells was normalised as a percentage of the total cells in vehicle control wells.

A further series concerns breast cancer lines. On the set-up: method as in PMID 31366901. The following applies: cited from earlier work.
The test system of a further series is renal cancer lines. On the set-up: method as in PMID 28810535. The following applies: cited from earlier work.
Details of series [2]: method as in PMID 27217046. The following applies: clinical; cited from earlier work.

For the compound `CC(=O)OC[C@H]1O[C@@H]([S-])[C@H](OC(C)=O)[C@@H](OC(C)=O)[C@@H]1OC(C)=O.CCP(CC)CC.[Au+]` [auranofin, reference compound], on TrxR (4 h, across all cell lines), the “decrease in TrxR activity” value is listed as 70–100%. The “inhibition of TrxR activity” value on TrxR (MDA-MB-231) was “approximately 80%”; against TrxR (T47D, compared to control), 10%. As to `Cn1c(/C=C/CO)c(CO)c2c1C(=O)C=C(N1CC1)C2=O` [EO9], in series [1], the clearance result is “rapid clearance”. As for `COc1cccc2c1C(=O)c1c(O)c3c(c(O)c1C2=O)C[C@@](O)(C(=O)CO)C[C@@H]3O[C@H]1C[C@H](N)[C@H](O)[C@H](C)O1` [doxorubicin], the “decrease in cell number” value with breast cancer cell lines is given as 50–70%. For `COc1cc(/C=C/C(=O)CC(=O)/C=C/c2ccc(O)c(OC)c2)ccc1O` [curcumin], the SER in the series with breast cancer lines was 1.38–1.78; with renal cancer lines, 1.42. For `O=c1[nH]cc(F)c(=O)[nH]1` [5-FU, 5-fluorouracil], the half-life entry in series [2] was “less than 20 min”.
